Assay in all cases: In vitro MIC, Broth Dilution Method
Holding throughout (type): cell-based

The test system of test [1] is Streptococcus pneumoniae 6301. To be noted: Broth Dilution Method; Streptococcus pneumoniae 6301; read-out: In Vitro MIC. The method, then: (§1) The diluted agents prepared in Mueller-Hinton broth were dispensed from a Dynatech MIC 2000 machine, in 100 microliter (μL) volumes into 96 well trays and used immediately or frozen at -10° to -70° C. until needed. Using a Dynatech inoculator and inoculum trays, 1.5 μL of a 10^-2 dilution of an overnight culture was added to each well of the tray. The tops of the trays were then sealed with tape, and the trays were incubated overnight at 37° C. and then examined with a viewer. The lowest concentration at which no growth was observed was considered to be the minimum inhibitory concentration (MIC).

Test [2] relates to Enterobacter cloacae 5699. On the procedure: as §1
Test [3] concerns Escherichia coli 4. On the procedure: as §1
For test [4], the system named is Serratia marcescens SM. As to conditions: read-out: In Vitro MIC. On the procedure:
as §1

The test system of test [5] is Citrobacter freundii BS-16. On the procedure:
as §1

The subject of test [6] is Streptococcus faecalis ATCC 29212. To be noted: Enterococcus faecalis, ATCC29212; Broth Dilution Method; Streptococcus faecalis ATCC 29212; read-out: In Vitro MIC. On the procedure:
as §1

The test system of test [7] is Enterobacter cloacae P99. As to conditions: P99, read-out: In Vitro MIC. On the procedure: as §1
In test [8] the test system is Escherichia coli TEM-1. As to conditions: TEM1, read-out: In Vitro MIC. On the procedure:
as §1

In test [9] the test system is Staphylococcus aureus Smith. As to conditions: read-out: In Vitro MIC. On the procedure:
as §1

In test [10] the test system is Staphylococcus aureus ATCC 29213. As to conditions: ATCC29213; Broth Dilution Method; Staphylococcus aureus ATCC 29213; read-out: In Vitro MIC. The method, then:
as §1
(In general: Dilution methods test growth across graded concentrations, often in twofold steps.)

Test [11] concerns Proteus mirabilis 2. On the procedure: as §1
In test [12] the test system is Proteus mirabilis 90. The method, then: as §1
Test [13] has as its system Pseudomonas aeruginosa Stone 130. As to conditions: STONE130; Broth Dilution Method; Pseudomonas aeruginosa Stone 130; read-out: In Vitro MIC. On the procedure:
as §1

The test system of test [14] is Proteus vulgaris ATCC 6380. The method, then: as §1
The test system of test [15] is Klebsiella pneumoniae A. To be noted: Broth Dilution Method; Klebsiella pneumoniae A; read-out: In Vitro MIC. The method, then:
as §1

For test [16], the system named is Pseudomonas aeruginosa ATCC 27853. To be noted: ATCC27853; Broth Dilution Method; Pseudomonas aeruginosa ATCC 27853; read-out: In Vitro MIC. The method, then:
as §1

The mark [17] stands for this setting: Broth Dilution Method, Enterobacter cloacae 5699, read-out: In Vitro MIC.
The mark [18] stands for this setting: Citrobacter freundii, BS16, read-out: In Vitro MIC.
Setting [19] is: ATCC6380, Broth Dilution Method, Proteus vulgaris ATCC 6380, read-out: In Vitro MIC.
Setting [20] is: Broth Dilution Method, Escherichia coli 4, read-out: In Vitro MIC.
Setting [21] is: Broth Dilution Method, Staphylococcus aureus Smith.
The mark [22] stands for this setting: Proteus mirabilis, 2, read-out: In Vitro MIC.
Setting [23] is: Broth Dilution Method, Proteus mirabilis 90, read-out: In Vitro MIC.

Where a name gives a salt, the structure may show the parent alone. Read-outs that look alike come from different tables or passages of the source.

For orientation: MIC means the smallest concentration in the dilution series that meets the test's criterion for growth inhibition.

Consider `CCn1cc(C(=O)O)c(=O)c2cc(F)c(N3CCN(C=N[C@@H]4C(=O)N5C(C(=O)O)=C(CSc6nc(=O)c(=O)[nH]n6C)CS[C@H]45)CC3)cc21` [Compound J, [6R-[6α,7β(Z)]]-7-[4-[[[2-Carboxy-3-[[(1,2,5,6-tetrahydro-2-methyl-5,6-dioxo-1,2,4-triazin-3-yl)thio]methyl]-8-oxo-5-thia-1-azabicyclo[4.2.0]-oct-2-en-7-yl]-imino]methyl]-1-piperazinyl]-ethyl-6-fluoro-1,4-dihydro-4-oxo-3-quinolinecarboxylic acid disodium salt], for which the MIC worked out at 2 µg/mL in [1]; 0.25 µg/mL in test [2] (setting [17]); 0.25 µg/mL in test [3] (Escherichia coli, 4, read-out: In Vitro MIC); 0.5 µg/mL in test [4] (Serratia marcescens); 0.5 µg/mL in test [5] (setting [18]); 0.25 µg/mL in [6]. Moreover, the MIC in test [7] is 0.5 µg/mL; in test [8], 0.25 µg/mL; in test [9] (Staphylococcus aureus), 1 µg/mL; in [10], 2 µg/mL; in test [11] (Broth Dilution Method, Proteus mirabilis 2, read-out: In Vitro MIC), 0.5 µg/mL; in test [12] (Proteus mirabilis, 90, read-out: In Vitro MIC) it was 1 µg/mL. The MIC in test [13] amounted to 8 µg/mL; in test [14] (setting [19]), 0.125 µg/mL; in test [15], 0.5 µg/mL; in test [16], 16 µg/mL.

As to `CCn1cc(C(=O)O)c(=O)c2cc(F)c(N3CCCN(C=N[C@@H]4C(=O)N5[C@@H]4SC(C)(C)[C@@H]5C(=O)O)CC3)nc21` [Compound K, [2S-(2α,5α,6β)]-7-[4-[[2-Carboxy-3,3-dimethyl-7-oxo-4-thia-1-azabicyclo[3.2.0]hept-6-yl)-imino]methyl]hexahydro-1H, 1,4-diazepin-1-yl]-1-ethyl-6-fluoro-1,4-dihydro-4-oxo-1,8-naphthyridine--carboxylic acid disodium salt], the MIC in [1] stood at 2 µg/mL; in test [2] (Enterobacter cloacae, 5699, read-out: In Vitro MIC), 4 µg/mL; in test [3] (setting [20]) it was 2 µg/mL; in test [4] (Serratia marcescens), 4 µg/mL; in test [5] (setting [18]) it was 4 µg/mL; in test [6] it was 128 µg/mL. Further, the MIC worked out at 1 µg/mL in test [7]; 1 µg/mL in [8]; 2 µg/mL in test [9] (setting [21]); 16 µg/mL in [10]; 4 µg/mL in test [11] (setting [22]); 8 µg/mL in test [12] (setting [23]). Further, the MIC in test [13] turned out to be 8 µg/mL; in test [14] (setting [19]), 2 µg/mL; in [15] it was 2 µg/mL.

For `CCn1cc(C(=O)O)c(=O)c2cc(F)c(N3CCN(C=N[C@@H]4C(=O)N5C(C(=O)O)=C(COC(C)=O)CS[C@H]45)CC3)cc21` [Compound I, [6R-[6α,7β(Z)]]-7-[4-[[[3-[Acetyloxy)methyl]-2-carboxylic-8-oxo-5-thia-1-azabicyclo[4..0]oct-2-en-7-yl]imino]methyl]-1-piperazinyl]-1-ethyl-6-fluoro-1,4-dihydro-4-oxo-3-quinolinecarboxylic acid monosodium salt], the minimal inhibitory concentration (MIC) in test [1] was 0.5 µg/mL; in [2] (setting [17]), 0.125 µg/mL; in [3] (setting [20]), 0.125 µg/mL; in [4] (Broth Dilution Method, Serratia marcescens SM) it was 0.125 µg/mL; in test [5] (BS16, Broth Dilution Method, Citrobacter freundii BS-16, read-out: In Vitro MIC) it was 0.25 µg/mL; in test [6] it was 4 µg/mL. In addition, the MIC in test [7] was found to be 0.063 µg/mL; in [8], 0.063 µg/mL; in test [9] (setting [21]) it was 0.25 µg/mL; in [10] it was 2 µg/mL; in test [11] (setting [22]) it was 0.063 µg/mL; in test [12] (setting [23]) it was 0.5 µg/mL. Moreover, the minimal inhibitory concentration (MIC) in test [13] was 1 µg/mL; in test [14] (Proteus vulgaris, ATCC6380, read-out: In Vitro MIC), 0.063 µg/mL; in test [15], 0.125 µg/mL; in [16], 8 µg/mL.

The record behind these values is US5159077A, “Penam antibacterial compounds” (Hoffmann-La Roche Inc., priority 1989, dated 1992).
